These results are taken from patent publication US8119633B2, “Substituted sulfonamide compounds” (Gruenenthal GmbH, priority 2007, dated 2012).

One experiment has as its target T1, human μ-opiate receptor (Homo sapiens, UniProt P35372).
T1 construct: purchased PerkinElmer Life Sciences, Zaventem, Belgium RB-HOM; host or cells: CHO-K1 cells (membrane preparation)
The experiment is described as follows: Affinity for the human μ-opiate receptor ([3H]-naloxone displacement, SPA). As to conditions: test substance 1 μmol/l; inhibition of specific [3H]-naloxone binding; CHO-K1 receptor membrane preparation; read-out: μ-Opioid receptor [1 μM] % inhibition. How it is done: Studies of the Effectiveness of the Compounds According to the Invention Method for determining the affinity for the human μ-opiate receptor
The receptor affinity for the human μ-opiate receptor is determined in a homogeneous batch on microtitre plates. To this end, serial dilutions of the substances to be tested are incubated for 90 minutes at room temperature with a receptor membrane preparation (15-40 μg of protein/250 μl of incubation batch) of CHO-K1 cells, which express the human μ-opiate receptor (RB-HOM receptor membrane preparation from PerkinElmer Life Sciences, Zaventem, Belgium), in the presence of 1 nmol/l of the radioactive ligand [^3H]-naloxone (NET719, PerkinElmer Life Sciences, Zaventem, Belgium) and 1 mg of WGA-SPA beads (wheatgerm agglutinin SPA beads from Amersham/Pharmacia, Freiburg, Germany) in a total volume of 250 μl. The incubation buffer used is 50 mmol/l of Tris-HCl supplemented with 0.06 wt. % bovine serum albumin. In order to determine non-specific binding, 100 μmol/l of naloxone is additionally added. When the ninety-minute incubation time has ended, the microtitre plates are centrifuged off for 20 minutes at 1000 g and the radioactivity is measured in a β-counter (Microbeta-Trilux, PerkinElmer Wallac, Freiburg, Germany). The percentage displacement of the radioactive ligand from its binding to the human μ-opiate receptor at a concentration of the test substances of 1 μmol/l is determined and stated as the percentage inhibition of specific binding. On the basis of the percentage displacement by different concentrations of the test substances, IC50 inhibitory concentrations, which effect 50% displacement of the radioactive ligand, are calculated. Ki values for the test substances are obtained by conversion by means of the Cheng-Prusoff equation.

The target of experiment [1] is T2, bradykinin receptor 1 (B1R) of the rat (Rattus norvegicus, UniProt P97583).
T2 construct: expressed in transfected cells; host or cells: CHO K1 cells
T2 sequence (P97583 1-337): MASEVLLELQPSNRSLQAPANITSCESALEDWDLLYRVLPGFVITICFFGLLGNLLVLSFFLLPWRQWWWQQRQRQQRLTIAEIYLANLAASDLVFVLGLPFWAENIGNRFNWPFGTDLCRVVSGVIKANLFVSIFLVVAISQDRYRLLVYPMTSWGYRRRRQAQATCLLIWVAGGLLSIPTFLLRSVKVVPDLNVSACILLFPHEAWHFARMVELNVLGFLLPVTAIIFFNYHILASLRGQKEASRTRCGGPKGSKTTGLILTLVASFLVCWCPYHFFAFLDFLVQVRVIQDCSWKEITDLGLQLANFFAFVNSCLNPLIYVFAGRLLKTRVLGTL
Briefly: Functional study on the bradykinin receptor 1 (B1R), rat: FLIPR Ca2+ influx assay. The class given is cell-based. The following applies: test substance 10 μM; CHO K1 cells transfected with rat B1R; Des-Arg9-bradykinin at EC80; Ca2+ influx (Fluo-4, FLIPR); read-out: B1R antagonism, rat [10 μM] % inhibition. Summed up: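 CHO K1 cells stably expressing rat B1R, Fluo-4-loaded, read on FLIPR (ex 488/em 540 nm, peak fluorescence). Test substances added first (agonism vs 10 μM Des-Arg9-bradykinin), then after 10-20 min Des-Arg9-bradykinin at EC80; % inhibition and IC50 from concentration series, n=2-3, N≥2.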

In experiment [2] the target is T3, human bradykinin receptor 1 (B1R) (Homo sapiens, UniProt P46663).
T3 construct: expressed in transfected cells; host or cells: CHO K1 cells
T3 sequence (P46663 1-353): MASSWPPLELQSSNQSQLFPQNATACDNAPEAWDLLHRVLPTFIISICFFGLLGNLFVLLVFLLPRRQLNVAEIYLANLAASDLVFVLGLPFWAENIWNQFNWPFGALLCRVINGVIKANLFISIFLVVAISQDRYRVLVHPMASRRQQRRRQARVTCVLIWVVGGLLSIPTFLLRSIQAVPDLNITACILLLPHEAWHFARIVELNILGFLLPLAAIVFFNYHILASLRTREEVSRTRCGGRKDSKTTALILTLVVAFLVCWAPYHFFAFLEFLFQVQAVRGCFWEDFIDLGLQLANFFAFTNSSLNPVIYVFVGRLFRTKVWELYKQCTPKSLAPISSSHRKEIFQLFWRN
The experiment is described as follows: Functional study on the bradykinin receptor 1 (B1R), human: FLIPR Ca2+ influx assay. As to conditions: test substance 10 μM; CHO K1 cells transfected with human B1R; Lys-Des-Arg9-bradykinin at EC80; Ca2+ influx (Fluo-4, FLIPR); read-out: B1R antagonism, human [10 μM] % inhibition. The class given is cell-based. An outline of the steps: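 CHO K1 cells stably expressing human B1R were loaded with Fluo-4, and Ca2+ fluorescence was read on FLIPR (ex 488/em 540 nm). Compound was added first (10 μM for % activation against Lys-Des-Arg9-bradykinin ≥0.5 nM). After 10-20 min, Lys-Des-Arg9-bradykinin was added at EC80 for % inhibition; IC50 came from concentration series, n=2-3, N≥2.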

T1 sequence (P35372 whole entry): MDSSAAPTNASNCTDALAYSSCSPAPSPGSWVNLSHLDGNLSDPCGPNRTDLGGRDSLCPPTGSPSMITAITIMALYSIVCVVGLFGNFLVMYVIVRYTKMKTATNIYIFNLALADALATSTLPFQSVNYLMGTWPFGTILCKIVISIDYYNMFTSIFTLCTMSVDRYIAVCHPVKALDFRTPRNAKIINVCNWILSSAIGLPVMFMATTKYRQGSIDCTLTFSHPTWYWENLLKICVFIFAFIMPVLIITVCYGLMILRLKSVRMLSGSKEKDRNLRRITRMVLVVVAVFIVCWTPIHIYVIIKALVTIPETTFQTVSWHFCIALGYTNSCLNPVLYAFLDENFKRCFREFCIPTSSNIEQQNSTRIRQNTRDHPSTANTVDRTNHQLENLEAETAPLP

What is called inhibition is the relative decrease from the control value, in per cent. On to `O=C1NCCN(S(=O)(=O)c2ccc(Cl)cc2Cl)C1CC(=O)N1CCCCC1C(Cc1ccccc1)N1CCOCC1` (stereo not drawn) [Example 63, 4-(2,4-dichlorophenylsulfonyl)-3-(2-(2-(1-morpholino-2-phenylethyl)piperidin-1-yl)-2-oxoethyl)piperazin-2-one], for which the inhibition at 1 µM on human μ-opiate receptor was 47%. The results for the inhibition at 10 µM in experiment [1] and in experiment [2] were -3% and 28.6%, respectively.
Consider `O=C(CC1C(=O)Nc2ccccc2N1S(=O)(=O)c1ccc(Cl)c(Cl)c1)NCC1CCC(C(c2ccccc2)N2CCOCC2)CC1` (stereo not drawn) [Example 64, 2-[1-(3,4-dichloro-benzenesulfonyl)-3-oxo-1,2,3,4-tetrahydro-quinoxalin-2-yl]-N-[4-(morpholin-4-yl-phenyl-methyl)-cyclohexylmethyl]-acetamide], for which, at human μ-opiate receptor, the inhibition at 1 µM was determined as 10%. For the same molecule, the inhibition at 10 µM in experiment [1] amounted to 29%; in experiment [2], 104%.
As for `O=C(CC1C(=O)Nc2ccccc2N1S(=O)(=O)c1ccc(Cl)c(Cl)c1)NCC1CCC(C(CCc2ccccc2)N2CCOCC2)CC1` (stereo not drawn) [Example 65, 2-[1-(3,4-dichloro-benzenesulfonyl)-3-oxo-1,2,3,4-tetrahydro-quinoxalin-2-yl]-N-[4-(1-morpholin-4-yl-3-phenyl-propyl)-cyclohexylmethyl]-acetamide], the inhibition at 1 µM on human μ-opiate receptor was 9%. In addition, the results for the inhibition at 10 µM in experiment [1] and in experiment [2] were 24% and 103%, respectively.
Take `O=C(CC1C(=O)Nc2ccccc2N1S(=O)(=O)c1ccc(Cl)c(Cl)c1)NCC1CCC(C(CCc2ccccc2)N2CCCC2)CC1` (stereo not drawn) [Example 66, 2-[1-(3,4-dichloro-benzenesulfonyl)-3-oxo-1,2,3,4-tetrahydro-quinoxalin-2-yl]-N-[4-(3-phenyl-1-pyrrolidin-1-yl-propyl)-cyclohexylmethyl]-acetamide]: the inhibition at 1 µM at human μ-opiate receptor is 11%. For the same molecule, the results for the inhibition at 10 µM in experiment [1] and in experiment [2] were 96% and 102%, respectively.
As to `O=C(CC1C(=O)Nc2ccccc2N1S(=O)(=O)c1ccc(Cl)c(Cl)c1)NCC1CCC(C(c2ccccc2)N2CCCC2)CC1` (stereo not drawn) [Example 67, 2-[1-(3,4-dichloro-benzenesulfonyl)-3-oxo-1,2,3,4-tetrahydro-quinoxalin-2-yl]-N-[4-(phenyl-pyrrolidin-1-yl-methyl)-cyclohexylmethyl]-acetamide], the inhibition at 1 µM on human μ-opiate receptor was 64%. The inhibition at 10 µM in experiment [1] and in experiment [2] was 104% in each case.
In the case of `O=C(CC1C(=O)Nc2ccccc2N1S(=O)(=O)c1ccc(Cl)c(Cl)c1)NC1CCC(C(CCc2ccccc2)N2CCCCC2)CC1` (stereo not drawn) [Example 68, 2-[1-(3,4-dichloro-benzenesulfonyl)-3-oxo-1,2,3,4-tetrahydro-quinoxalin-2-yl]-N-[4-(3-phenyl-1-piperidin-1-yl-propyl)-cyclohexyl]-acetamide], on human μ-opiate receptor, the inhibition at 1 µM turned out to be 30%. Further, the figures for the inhibition at 10 µM in experiment [1] and in experiment [2] were 37% and 104%, respectively.
For the molecule `O=C(CC1C(=O)Nc2ccccc2N1S(=O)(=O)c1ccc(Cl)c(Cl)c1)NC1CCC(C(CCc2ccccc2)N2CCOCC2)CC1` (stereo not drawn) [Example 69, 2-[1-(3,4-dichloro-benzenesulfonyl)-3-oxo-1,2,3,4-tetrahydro-quinoxalin-2-yl]-N-[4-(1-morpholin-4-yl-3-phenyl-propyl)-cyclohexyl]-acetamide], the inhibition at 1 µM on human μ-opiate receptor worked out at 7%. The figures for the inhibition at 10 µM in experiment [1] and in experiment [2] were 19% and 105%, respectively.
Consider `CN1CCN(C(c2ccccc2)C2CCC(NC(=O)CC3C(=O)Nc4ccccc4N3S(=O)(=O)c3ccc(Cl)c(Cl)c3)CC2)CC1` (stereo not drawn) [Example 70, 2-[1-(3,4-dichloro-benzenesulfonyl)-3-oxo-1,2,3,4-tetrahydro-quinoxalin-2-yl]-N-{4-[(4-methyl-piperazin-1-yl)-phenyl-methyl]-cyclohexyl}-acetamide], for which the inhibition at 1 µM at human μ-opiate receptor was 11%. For the same molecule, the values for the inhibition at 10 µM in experiment [1] and in experiment [2] were 98% and 104%, respectively.
Regarding `O=C1Nc2ccccc2N(S(=O)(=O)c2ccc(Cl)c(Cl)c2)C1CC(=O)N1CCC(C(c2ccccc2)N2CCOCC2)CC1` (stereo not drawn) [Example 71, 4-(3,4-dichloro-benzenesulfonyl)-3-{2-[4-(morpholin-4-yl-phenyl-methyl)piperidin-1-yl]-2-oxo-ethyl}-3,4-dihydro-1H-quinoxalin-2-one], the inhibition at 1 µM on human μ-opiate receptor turned out to be 12%. The inhibition at 10 µM in experiment [1] was 32%; in experiment [2], 104%.
For `O=C1Nc2ccccc2N(S(=O)(=O)c2ccc(Cl)c(Cl)c2)C1CC(=O)N1CCC(C(Cc2ccccc2)N2CCOCC2)CC1` (stereo not drawn) [Example 72, 4-(3,4-dichlorophenylsulfonyl)-3-(2-(4-(1-morpholino-2-phenylethyl)piperidin-1-yl)-2-oxoethyl)-3,4-dihydroquinoxalin-2(1H)-one] the same measures were 26%, 30% and 102%.
`O=C(CC1CCCN1S(=O)(=O)c1ccc(Cl)c(Cl)c1)NCC1CCC(C(c2ccccc2)N2CCOCC2)CC1` (stereo not drawn) [Example 73, 2-[1-(3,4-dichloro-benzenesulfonyl)-pyrrolidin-2-yl]-N-[4-(morpholin-4-yl-phenyl-methyl)-cyclohexylmethyl]-acetamide]: at human μ-opiate receptor, the inhibition at 1 µM turned out to be 17%. In addition, the figures for the inhibition at 10 µM in experiment [1] and in experiment [2] were 36% and 76.3%, respectively.
Turning to `O=C(CC1CCCN1S(=O)(=O)c1ccc(Cl)c(Cl)c1)NCC1CCC(C(CCc2ccccc2)N2CCOCC2)CC1` (stereo not drawn) [Example 74, 2-[1-(3,4-dichloro-benzenesulfonyl)-pyrrolidin-2-yl]-N-[4-(1-morpholin-4-yl-3-phenyl-propyl)-cyclohexylmethyl]-acetamide], on human μ-opiate receptor, the inhibition at 1 µM was 7%. For the same molecule, the inhibition at 10 µM in experiment [1] turned out to be 19%; in experiment [2], 54.7%.
Taken in the same sequence, the figures for `O=C(CC1CCCN1S(=O)(=O)c1ccc(Cl)c(Cl)c1)NCC1CCC(C(CCc2ccccc2)N2CCCC2)CC1` (stereo not drawn) [Example 75, 2-[1-(3,4-dichloro-benzenesulfonyl)-pyrrolidin-2-yl]-N-[4-(3-phenyl-1-pyrrolidin-1-yl-propyl)-cyclohexylmethyl]-acetamide] were 65%, 2% and 91.7%.
In the case of `O=C(CC1CCCN1S(=O)(=O)c1ccc(Cl)c(Cl)c1)NCC1CCC(C(c2ccccc2)N2CCCC2)CC1` (stereo not drawn) [Example 76, 2-[1-(3,4-dichloro-benzenesulfonyl)-pyrrolidin-2-yl]-N-[4-(phenyl-pyrrolidin-1-ylmethyl)-cyclohexylmethyl]-acetamide], the inhibition at 1 µM on human μ-opiate receptor came out at 84%. Moreover, the inhibition at 10 µM in experiment [1] is 9%; in experiment [2] it was 80.4%.
